Entries after “also recorded” stand apart in the source; their conditions may differ.

Series [1] can be described thus: Sleep time / hypnosis or sedation. Type of series: in vivo. Conditions: Table IX, intraperitoneal, 65 mg/kg.
Experimental: In Phase I identification of anticonvulsant activity, test compounds were given intraperitoneally (IP) at 30, 100, 300 and, in some cases, 600 milligrams per kilogram (mg/kg) of body weight and protection against Maximal Electroshock and/or Metrazol-induced seizures was determined 30 minutes, 4 hours, or later. […] Subsequently the routine protocol was modified and certain of the test compounds (see Tables, infra) re-evaluated following subcutaneous (SC) injection at periods of up to 8 hours post injection. Subcutaneous administration can be helpful in determining whether or not hypnotic activity can be distinguished from anticonvulsant activity based upon the decreased rate of absorption associated with this route of administration as opposed to the more rapid rate of absorption associated with IP administration.
The nature of series [2]: Maximal Electroshock Seizure Test. The series is classed as in vivo, male Carworth Farms #1 mice or Sprague-Dawley rats.
Series [3] is described as follows: Anticonvulsant activity, both or unspecified seizure models. The series is classed as in vivo, male Carworth Farms #1 mice or Sprague-Dawley rats.
The conditions of series [4]: cited from earlier work.
The conditions of series [5]: known from literature; cited from earlier work.
For series [6] the following is noted: mouse, in vivo; cited from earlier work.
For series [7] the following is noted: 85 mg/kg subcutaneous; cited from earlier work.

For the compound `CCC1(CCC(C)C)C(=O)[N-]C(=O)NC1=O.CCC1(CCC(C)C)C(=O)[N-]C(=O)NC1=O.[Cu+2]` [Cu(II)(amobarbital)2], the “Sleep (in words)” value in series [1] is “All animals slept”. Also, the “Average Sleep Time” value in series [1] (5 animals) stood at 16 min. In addition, the “Protection Against Seizure” value in series [2] (Table IX, maximal electroshock, intraperitoneal, 65 mg/kg, 5 animals) is listed as 100 Percent protected. Besides, the “Potency or effectiveness relative to a comparator (in words)” value in series [3] (in vivo) is recorded as “more potent anticonvulsant than sodium (Na) amobarbital”.

As for `O=C1NC(=O)C(c2ccccc2)(c2ccccc2)N1` [Dilantin, Phenytoin, reference compound], the ED50 (as a rule, the midpoint of the dose-response relation) in series [2] (Mus musculus, Table X, IP, at time of peak activity, read-out: ED50 for inhibition of seizures, MES (Phase II)) amounted to 7 mg/kg. For the same compound, the “Known effect of parent drug on seizures” value in series [4] is on record as “known to only inhibit Maximal Electroshock-induced seizures but it potentiates Metrazol-induced seizures”. Further, the “Time of peak effect” value in series [3] (Phase II) came to 1 h. In series [3] (Table X, IP, challenge time), the “Time of peak activity (Phase II)” value stood at 1 h.

Consider `O=C(O)c1ccccc1O` [salicylate], for which the “Convulsions / CNS toxicity at high doses” value in series [5] is on record as “cause convulsions at high doses”.

Turning to `C1CCc2nnnn2CC1` [Metrazol, pentylenetetrazol], the “CNS stimulation / rotating rod toxicity (known)” value in series [6] is “potent central nervous system stimulant; also recorded: marked rotating rod toxicity”. In addition, the Seizures produced entry in series [7] was “greater than 97 % of mice”.
